Patent publication US5554641A, “Nonpeptides as tachykinin antagonists” (priority 1995, dated 1996)

Biological target: T1, human NK3 receptor (Homo sapiens, UniProt P29371)
T1 construct: expressed in transfected cells; host or cells: CHO cell membranes
T1 sequence (P29371 1-465): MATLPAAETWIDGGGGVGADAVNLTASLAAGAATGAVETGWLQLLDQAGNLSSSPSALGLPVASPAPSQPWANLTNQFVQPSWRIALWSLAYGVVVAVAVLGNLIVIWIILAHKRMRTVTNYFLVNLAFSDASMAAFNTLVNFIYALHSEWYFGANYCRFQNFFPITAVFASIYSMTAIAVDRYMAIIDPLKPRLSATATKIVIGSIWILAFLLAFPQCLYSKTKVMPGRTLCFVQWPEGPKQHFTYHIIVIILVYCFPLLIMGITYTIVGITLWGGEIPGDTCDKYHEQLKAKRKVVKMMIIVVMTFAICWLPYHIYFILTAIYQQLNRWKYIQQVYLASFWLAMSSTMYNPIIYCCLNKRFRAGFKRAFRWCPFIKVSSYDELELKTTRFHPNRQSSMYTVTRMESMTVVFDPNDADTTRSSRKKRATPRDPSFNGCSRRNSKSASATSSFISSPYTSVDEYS
Assay: In vitro human NK3 receptor binding assay ([125I]-[MePhe7]neurokinin B, CHO cell membranes)

SMILES | IC50 [nM]
C[C@](Cc1ccccc1)(NC(=O)OC1CCCCc2ccccc21)C(=O)NCCCCCCCCC(N)=O (stereo partly shown) [Example 5, [1-(8-Carbamoyl-octylcarbamoyl)-1-methyl-2-phenyl-ethyl]-carbamic acid 6,7,8,9-tetrahydro-5H-benzocyclohepten-5-yl ester] | 18
CC(C)[C@H](OC(=O)NC(C)(Cc1cc2ccccc2o1)C(=O)NCCCCCCCNC(N)=O)c1ccccc1 (single isomer, unassigned) [Example 10] | 91
CC(C)C(OC(=O)NC(C)(Cc1cccc(F)c1F)C(=O)NCCCOCCCNC(N)=O)c1ccccc1 (stereo not shown) [Example 11, {2-(2,3-Difluoro-phenyl}-1-methyl-1-[3-{3-ureido-propoxy)-propylcarbamoyl]-ethyl}-carbamic acid 2-methyl-1-phenyl-propyl ester] | 30
CC(C)C(OC(=O)N[C@](C)(Cc1ccccc1)C(=O)N[C@@H](C)c1ccccc1)c1ccc(F)cc1 (stereo partly shown) [Example 17, [1-Methyl-2-phenyl-1-(1-phenyl-ethylcarbamoyl)-ethyl]-carbamic acid 1-(4-fluoro-phenyl)-2-methyl-propyl ester] | 982
CC(C)[C@H](OC(=O)N[C@](C)(Cc1ccccc1)C(=O)N[C@@H](Cc1ccc(O)cc1)C(=O)NCCCCCCCO)c1ccccc1 [Example 13, {1-[1-(7-Hydroxy-heptylcarbamoyl)-2-(4-hydroxy-phenyl)-ethylcarbamoyl]-1-methyl-2-phenyl-ethyl}-carbamic acid 2-methyl-1-phenyl-propyl ester] | 12
CC(C)[C@H](OC(=O)N[C@](C)(Cc1ccccc1)C(=O)N[C@@H](Cc1ccc(O)cc1)C(=O)NCCCCCCO)c1ccccc1 [Example 12, {1-[1-(6-Hydroxy-hexylcarbamoyl)-2-(4-hydroxy-phenyl)-ethylcarbamoyl]-1-methyl-2-phenyl-ethyl}-carbamic acid 2-methyl-1-phenyl-propyl ester] | 15

Continued by falling IC50, values first:

IC50 [nM] | SMILES
258 | CC(C)C(OC(=O)N[C@](C)(Cc1ccccc1)C(=O)NCCCCCCCCC(N)=O)c1ccc(Cl)cc1 (stereo partly shown) [Example 2, Carbamic acid, [2-[(9-amino-9-oxononyl)amino]-1-methyl-2-oxo-1-(phenylmethyl)ethyl]-, 1-(4-chlorophenyl)-2-methylpropyl ester]
114 | CC(C)[C@@H](OC(=O)N[C@](C)(Cc1ccccc1)C(=O)NC(C)(C)c1ccccc1)c1ccccc1 [Example 15, [1-Methyl-1-(1-methyl-1-phenyl-ethylcarbamoyl)-2-phenyl-ethyl]-carbamic acid 2-methyl-1-phenyl-propyl ester]
102 | CC1(C)CCc2ccccc2C1OC(=O)N[C@](C)(Cc1ccccc1)C(=O)NCCCCCCCCC(N)=O (stereo partly shown) [Example 4, [1-(8-Carbamoyl-octylcarbamoyl)-1-methyl-2-phenyl-ethyl]-carbamic acid 2,2-dimethyl-1,2,3,4-tetrahydro-naphthalen-1-yl ester]
94 | CC(C)[C@@H](OC(=O)N[C@](C)(Cc1ccccc1)C(=O)N[C@@H](CO)c1ccccc1)c1ccccc1 [Example 16, [1-(2-Hydroxy-1-phenyl-ethylcarbamoyl)-1-methyl-2-phenyl-ethyl]-carbamic acid 2-methyl-1-phenyl-propyl ester]
61 | CC1(C)CCCc2ccccc2C1OC(=O)N[C@](C)(Cc1ccccc1)C(=O)NCCCCCCCCC(N)=O (stereo partly shown) [Example 6, [1-(8-Carbamoyl-octylcarbamoyl)-1-methyl-2-phenyl-ethyl]-carbamic acid 6,6-dimethyl-6,7,8,9-tetrahydro-5H-benzocyclohepten-5-yl ester]
52 | CC(C)[C@H](OC(=O)N[C@](C)(Cc1ccccc1)C(=O)NCCCCCCCCC(N)=O)c1ccccc1 [Example 1, Carbamic acid, [2-[(9-amino-9-oxononyl)amino]-1-methyl-2-oxo-1-(phenylmethyl)ethyl]-, 2-methyl-1-phenylpropyl ester, [R-(R*,S*)]-]
40 | C[C@](Cc1ccccc1)(NC(=O)OC(c1ccccc1)C1CCCC1)C(=O)NCCCCCCCCC(N)=O (stereo partly shown) [Example 3, [1-(8-Carbamoyl-octylcarbamoyl)-1-methyl-2-phenyl-ethyl]-carbamic acid cyclopentyl-phenyl-methyl ester]
